Source: US9364438B2, “Process for producing solid particles” (Takeda Pharmaceutical Company Limited, priority 2012, dated 2016)

Assay: Microscopic observation of precipitated resatorvid crystals (poor solvent crystallization)
Assay type: physicochemical
Settings: microscope
Description: Resatorvid (10 mg) was dissolved in methanol (0.5 mL) to prepare a methanol solution of resatorvid. The solution was added dropwise to water (5 mL) for injection with stirring at 600 rpm to allow precipitation of resatorvid crystal. The crystal was recovered, and vacuum dried at 50° C. for 24 hr. The obtained crystal was observed under a microscope.
In the same manner as in Comparative Example 1 except that water for injection containing nanobubbles produced under the above-mentioned conditions was used instead of water for injection, resatorvid crystal was obtained. The obtained crystal was observed under a microscope.
Resatorvid (10 mg) was dissolved in methanol (0.5 mL) to prepare a methanol solution of resatorvid. Polysorbate 80 (2 mg) was dissolved in water for injection (10 mL) to prepare aqueous polysorbate 80 solution. The aforementioned resatorvid solution (0.5 mL) was added dropwise to water (10 mL) for injection with stirring at 600 rpm to allow precipitation of resatorvid crystal. The crystal was recovered, and vacuum dried at 50° C. for 24 hr. The obtained crystal was observed under a microscope.
In the same manner as in Comparative Example 2 except that water for injection containing nanobubbles produced under the above-mentioned conditions was used instead of water for injection, resatorvid crystal was obtained. The obtained crystal was observed under a microscope.

| SMILES | average maximum length of each crystal particle (poor solvent aqueous polysorbate 80 nanobubble solution, compared with conventional aqueous polysorbate 80 solution (Comparative Example 2)) | average maximum length of each crystal particle (poor solvent nanobubble water, compared with conventional water for injection (Comparative Example 1), FIG. 1 vs FIG. 2) |
| --- | --- | --- |
| CCOC(=O)C1=CCCC[C@H]1S(=O)(=O)Nc1ccc(F)cc1Cl [Example 2, ethyl (6R)-6-[(2-chloro-4-fluoroanilino)sulfonyl]-1-cyclohexene-1-carboxylate] | smaller average maximum length |  |
| CCOC(=O)C1=CCCC[C@H]1S(=O)(=O)Nc1ccc(F)cc1Cl [Example 1, ethyl (6R)-6-[(2-chloro-4-fluoroanilino)sulfonyl]-1-cyclohexene-1-carboxylate] |  | smaller average maximum length |
